Data taken from US20200179428A1, “CYCLIC PHOSPHATE SUBSTITUTED NUCLEOSIDE DERIVATIVES AND METHODS OF USE THEREOF FOR THE TREATMENT OF VIRAL DISEASES” (priority 2016, published 2020).
Like-named read-outs stand apart in the source and are kept apart here.

What was measured:
Type in all cases: cell-based
replicon cells = experiment: Cytotoxicity MTS assay (CellTiter 96 Aqueous One Solution) in replicon cells; settings: EDU; read-out: CC50 (EDU) Range
replicon cells (1b-Con1) = experiment: Replicon activity assay (replicon RNA level by real-time RT-PCR, Taqman); settings: HCV replicon genotype 1b, read-out: EC50 (1b) Range
Procedure, shortened: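 HCV 1b-Con1 replicon cells treated 3 days with 10-point twofold serial dilutions in triplicate (0.5% DMSO, 10% FBS); replicon RNA quantified by Taqman real-time RT-PCR normalised to GAPDH, EC50 derived. Cytotoxicity by MTS read-out at day 3 on identically treated cells.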

[1] = Cytotoxicity MTS assay (CellTiter 96 Aqueous One Solution) in replicon cells; settings: HCV replicon cells (1b-Con1); EDU; read-out: CC50 (EDU) Range

Structure (SMILES) | CC50 (replicon cells) | EC50 (replicon cells (1b-Con1)) | CC50 at 3 days [1] | EC50 (replicon cells (1b-Con1); Hepatitis C virus)
CC(C)OC(=O)C(C)CCOP1(=O)OC[C@H]2O[C@@H](n3cnc4c(N)ncnc43)[C@](C)(Cl)[C@@H]2O1 (single isomer, unassigned) [Compound 35B] | > 50 µM | ≤ 0.25 µM |  | 
C#C[C@@]1(O)[C@@H]2OP(=O)(OCC[C@H](C)C(=O)OC3CCCC3)OC[C@H]2O[C@H]1n1ccc(=O)[nH]c1=O (single isomer, unassigned) [Compound 8B2] | > 50 µM | 0.25 to 1 µM |  | 
C#C[C@]1(C)[C@@H]2O[P@](=O)(OCC(CC(=O)OC(C)C)N(C)C(=O)OC(C)(C)C)OC[C@H]2O[C@H]1n1ccc(=O)[nH]c1=O (some centres unmarked) [Compound 74B] |  |  | > 50 µM | > 10 µM
C#C[C@]1(C)[C@@H]2O[P@@](=O)(OCCC(CC)C(=O)OC3CCCC3)OC[C@H]2O[C@H]1n1ccc(=O)[nH]c1=O (some centres unmarked) [Compound 30A] |  |  | > 50 µM | > 10 µM
C#C[C@]1(C)[C@@H]2O[P@@](=O)(OC[C@H](NC(=O)OC)C(=O)OC(C)C)OC[C@H]2O[C@H]1n1ccc(=O)[nH]c1=O [Compound 40A] |  |  | > 50 µM | > 10 µM
C#C[C@]1(C)[C@@H]2O[P@](=O)(OCC[C@H](OC)C(=O)OC(C)C)OC[C@H]2O[C@H]1n1ccc(=O)[nH]c1=O [Compound 56B] |  |  | > 50 µM | 0.25 to 1 µM
CCC(CCO[P@]1(=O)OC[C@H]2O[C@@H](n3ccc(=O)[nH]c3=O)[C@](C)(N)[C@@H]2O1)C(=O)OC(C)C (some centres unmarked) [Compound 23B] |  |  | > 50 µM | > 10 µM
CC(C)OC(=O)C(C)(C)CCO[P@]1(=O)OC[C@H]2O[C@@H](n3ccc(=O)[nH]c3=O)[C@](C)(N)[C@@H]2O1 [Compound 19B] |  |  | > 50 µM | > 10 µM
CC(C)OC(=O)CC(F)(F)CO[P@@]1(=O)OC[C@H]2O[C@@H](n3ccc(=O)[nH]c3=O)[C@](C)(N)[C@@H]2O1 [Compound 49A] |  |  | > 50 µM | > 10 µM
CC(C)OC(=O)[C@@H](C)CCO[P@]1(=O)OC[C@H]2O[C@@H](n3cnc4c(N)ncnc43)[C@](C)(N)[C@@H]2O1 [Compound 73B] |  |  | > 50 µM | 1 to 10 µM
CCCCCOC(=O)C(C)CCO[P@@]1(=O)OC[C@H]2O[C@@H](n3ccc(=O)[nH]c3=O)[C@](C)(N)[C@@H]2O1 (some centres unmarked) [Compound 79A] |  |  | > 50 µM | 1 to 10 µM
CC(C)OC(=O)[C@@H](C)CCOP1(=O)OC[C@H]2O[C@@H](n3cnc4c(N)ncnc43)[C@](C)(Cl)[C@@H]2O1 (single isomer, unassigned) [Compound 35A2] |  |  | > 50 µM | ≤ 0.25 µM
C#C[C@@]1(OC(=O)CCCCCC)[C@@H]2O[P@@](=O)(OCC[C@@H](C)C(=O)OC(C)C)OC[C@H]2O[C@H]1n1ccc(=O)[nH]c1=O [Compound 84A1] |  |  | > 50 µM | ≤ 0.25 µM
CC(C)OC(=O)C(C)(C)CO[P@@]1(=O)OC[C@H]2O[C@@H](n3ccc(=O)[nH]c3=O)[C@](C)(C#N)[C@@H]2O1 [Compound 16A] |  |  | > 50 µM | > 10 µM
CC(C)OC(=O)C(C)(C)CO[P@]1(=O)OC[C@H]2O[C@@H](n3ccc(=O)[nH]c3=O)[C@](C)(N)[C@@H]2O1 [Compound 15B] |  |  | > 50 µM | > 10 µM
CC(C)OC(=O)C(C)CCOP1(=O)OC[C@H]2O[C@@H](n3ccc(=O)[nH]c3=O)[C@](C)(N)[C@@H]2O1 (single isomer, unassigned) [Compound 10A1] |  |  | > 50 µM | > 10 µM
CC(C)OC(=O)[C@@H](C)CCOP1(=O)OC[C@H]2O[C@@H](n3ccc(=O)[nH]c3=O)[C@](C)(Cl)[C@@H]2O1 (single isomer, unassigned) [Compound 39A1] |  |  | > 50 µM | ≤ 0.25 µM
C#C[C@]1(C)[C@@H]2O[P@@](=O)(OCCC(CC)C(=O)OC(C)C)OC[C@H]2O[C@H]1n1ccc(=O)[nH]c1=O (some centres unmarked) [Compound 31A] |  |  | > 50 µM | 0.25 to 1 µM
C#C[C@]1(C)[C@@H]2O[P@@](=O)(OCC(CC(=O)OC(C)C)N(C)C(=O)OC(C)(C)C)OC[C@H]2O[C@H]1n1ccc(=O)[nH]c1=O (some centres unmarked) [Compound 74A1] |  |  | > 50 µM | > 10 µM
C#C[C@]1(C)[C@@H]2OP(=O)(OCCC(C)C(=O)OC3CCCC3)OC[C@H]2O[C@H]1n1ccc(=O)[nH]c1=O (some centres unmarked) [Compound 2A] |  |  | > 50 µM | 1 to 10 µM
CCC(CCO[P@@]1(=O)OC[C@H]2O[C@@H](n3ccc(=O)[nH]c3=O)[C@](C)(N)[C@@H]2O1)C(=O)OC(C)C (some centres unmarked) [Compound 23A] |  |  | > 50 µM | > 10 µM
CC(=O)O[C@@H](CO[P@]1(=O)OC[C@H]2O[C@@H](n3ccc(=O)[nH]c3=O)[C@](C)(N)[C@@H]2O1)[C@@H](OC(C)=O)C(=O)OC(C)C [Compound 54B] |  |  | > 50 µM | > 10 µM
